Measurements published in patent US4272437A, “Antibacterial agents, and 4-thio azetidinone intermediates” (priority 1979, dated 1981).
≈ marks a conversion by molar mass, not a printed value. Like-named read-outs stand apart in the source and are kept apart here.

How the values were obtained:
[1] = stability of isolated product (light, handling); format: physicochemical
[2] = system: Staph. aureus (Pen-Res) A-9606; experiment: MIC, tube dilution, Staphylococcus aureus A9606 (Pen-Res); format: cell-based; settings: Staphylococcus aureus, Staph. aureus A9606 (Pen-Res); overnight 37° C.; read-out: Minimum Inhibitory Concentration (M.I.C.)
Source text: (§1) Representative compounds of the present invention were subjected to in vitro antibiotic screening against a variety of microorganisms.

Ent. cloacae A-9656 = experiment: MIC, tube dilution, Enterobacter cloacae A9656; format: cell-based; settings: overnight 37° C., read-out: Minimum Inhibitory Concentration (M.I.C.)
Source text: as §1

Ps. aeruginosa A-21213 = experiment: MIC, tube dilution, Pseudomonas aeruginosa A21213; format: cell-based; settings: overnight 37° C., read-out: Minimum Inhibitory Concentration (M.I.C.)
Source text: as §1

[3] = system: Staph. aureus (Meth-Res) A-15097; experiment: MIC, tube dilution, Staphylococcus aureus A15097 (Meth-Res); format: cell-based; settings: Staphylococcus aureus, overnight 37° C.
Source text: as §1

Proteus rettgeri A21203 = experiment: MIC, tube dilution, Proteus rettgeri A21203; format: cell-based; settings: Providencia rettgeri, overnight 37° C., read-out: Minimum Inhibitory Concentration (M.I.C.)
Source text: as §1

Ps. aeruginosa A-9843A = experiment: MIC, tube dilution, Pseudomonas aeruginosa A9843A; format: cell-based; settings: Pseudomonas aeruginosa, A9843A, read-out: Minimum Inhibitory Concentration (M.I.C.), Pseudomonas aeruginosa A9843A; overnight 37° C.
Source text: as §1

Staph. aureus A-9537 = experiment: MIC, tube dilution, Staphylococcus aureus A9537; format: cell-based; settings: Staphylococcus aureus, A9537, Staph. aureus A9537; overnight 37° C., Nutrient Broth; read-out: Minimum Inhibitory Concentration (M.I.C.)
Source text: as §1

E. coli A-15119 = experiment: MIC, tube dilution, Escherichia coli A15119; format: cell-based; settings: Escherichia coli, A15119, E. coli A15119; overnight 37° C.; read-out: Minimum Inhibitory Concentration (M.I.C.)
Source text: as §1

Str. pyogenes A-9604 = experiment: MIC, tube dilution, Streptococcus pyogenes A9604; format: cell-based; settings: Streptococcus pyogenes, A9604, Str. pyogenes A9604; overnight 37° C., Nutrient Broth; read-out: Minimum Inhibitory Concentration (M.I.C.)
Source text: as §1

Pr. morganii A-15153 = experiment: MIC, tube dilution, Proteus morganii A15153; format: cell-based; settings: Morganella morganii, A15153, Proteus morganii A15153; overnight 37° C.; read-out: Minimum Inhibitory Concentration (M.I.C.)
Source text: as §1

[4] = Mouse blood levels after intramuscular administration; format: in vivo; settings: average of 6 mice, read-out: Mouse blood level
Description: Mouse blood levels after intramuscular administration of representative compounds of the present invention were determined and are reported in the table below.

E. coli A-20341-1 = experiment: MIC, tube dilution, Escherichia coli A20341-1; format: cell-based
Source text: as §1

[5] = system: Staph. aureus A-9537 and 50% serum; experiment: MIC, tube dilution, Staph. aureus A9537 + 50% serum; format: cell-based, Staphylococcus aureus; settings: Staphylococcus aureus, overnight 37° C., read-out: Minimum Inhibitory Concentration (M.I.C.)
Source text: as §1

Str. faecalis A-20688 = experiment: MIC, tube dilution, Streptococcus faecalis A20688; format: cell-based; settings: Enterococcus faecalis, A20688, Str. faecalis A20688; overnight 37° C.; read-out: Minimum Inhibitory Concentration (M.I.C.)
Source text: as §1

K. pneumoniae A-15130 = experiment: MIC, tube dilution, Klebsiella pneumoniae A15130; format: cell-based; settings: Klebsiella pneumoniae, A15130, K. pneumoniae A15130; overnight 37° C.; read-out: Minimum Inhibitory Concentration (M.I.C.)
Source text: as §1

Str. pneumoniae A-9585 = experiment: MIC, tube dilution, Streptococcus pneumoniae A9585; format: cell-based; settings: Streptococcus pneumoniae, A9585, Str. pneumoniae A9585; overnight 37° C., Nutrient Broth; read-out: Minimum Inhibitory Concentration (M.I.C.)
Source text: as §1

[6] = system: Klebsiella species A20468; experiment: MIC, tube dilution, Klebsiella species A20468; format: cell-based; settings: Klebsiella species (K. pneumoniae) A20468; overnight 37° C.; read-out: Minimum Inhibitory Concentration (M.I.C.)
Source text: as §1

Ser. marcescens A-20019 = experiment: MIC, tube dilution, Serratia marcescens A20019; format: cell-based; settings: Serratia marcescens, A20019, Serratia marcescens A20019; overnight 37° C.; read-out: Minimum Inhibitory Concentration (M.I.C.)
Source text: as §1

Ent. cloacae A-9659 = experiment: MIC, tube dilution, Enterobacter cloacae A9659; format: cell-based; settings: Enterobacter cloacae, A9659, Enterobacter cloacae A9659; overnight 37° C.; read-out: Minimum Inhibitory Concentration (M.I.C.)
Source text: as §1

Pr. mirabilis A-9900 = experiment: MIC, tube dilution, Proteus mirabilis A9900; format: cell-based; settings: Proteus mirabilis, A9900, Proteus mirabilis A9900; overnight 37° C.; read-out: Minimum Inhibitory Concentration (M.I.C.)
Source text: as §1

S. aureus A9537 = experiment: In vivo protection of mice, lethal infection with S. aureus A9537; settings: IM, 2 treatments; for ED50: Staphylococcus aureus, A9537, im, read-out: PD50
Description: (§2) Representative compounds of the present invention were also tested in vivo in mice and their PD50 (dose of compound in mg/kg required to protect 50% of the treated mice against an otherwise lethal infection of a micro-organism) values determined with respect to the test organisms shown below.

[7] = system: Hemophilus influenzae A9833; experiment: MIC, tube dilution, Hemophilus influenzae A9833; format: cell-based; settings: Haemophilus influenzae, A9833, read-out: Minimum Inhibitory Concentration (M.I.C.)
Source text: as §1

Proteus vulgaris A21559 = experiment: MIC, tube dilution, Proteus vulgaris A21559; format: cell-based; settings: Proteus vulgaris, A21559, Proteus vulgaris A21559; overnight 37° C.; read-out: Minimum Inhibitory Concentration (M.I.C.)
Source text: as §1

S. aureus A9606 = experiment: In vivo protection of mice, lethal infection with S. aureus A9606; settings: Staphylococcus aureus, IM, 2 treatments, 8 × 10^8 organisms, read-out: PD50
Description: as §2

K. pneumoniae A15130 = experiment: In vivo protection of mice, lethal infection with K. pneumoniae A15130; settings: Klebsiella pneumoniae, IM, 2 treatments, 1.2 × 10^3 organisms, read-out: PD50
Description: as §2

S. pneumoniae A9585 = experiment: In vivo protection of mice, lethal infection with S. pneumoniae A9585; settings: Streptococcus pneumoniae, A9585, im, 2 treatments, read-out: PD50
Description: as §2

S. pyogenes A9604 = experiment: In vivo protection of mice, lethal infection with S. pyogenes A9604; settings: Streptococcus pyogenes, A9604, im, 2 treatments, read-out: PD50
Description: as §2

[8] = system: Providencia stuartii A21205; experiment: MIC, tube dilution, Providencia stuartii (Pr. rettgeri) A21205; format: cell-based; settings: Providencia stuartii, A21205, Providencia stuartii (Pr. rettgeri) A21205; overnight 37° C.; read-out: Minimum Inhibitory Concentration (M.I.C.)
Source text: as §1

[9] = in vitro and in vivo, literature; cited from earlier work
[10] = system: Gram-negative and Gram-positive organisms; settings: literature; cited from earlier work
β-lactamases = settings: literature; cited from earlier work
[11] = Escherichia coli, A203411, E. coli A20341-1; overnight 37° C.; read-out: Minimum Inhibitory Concentration (M.I.C.)

Row | SMILES | stability [1] | MIC [2] [µg/mL] | MIC (Ps. aeruginosa A-21213; Pseudomonas aeruginosa A21213) [µg/mL] | MIC (Ps. aeruginosa A-9843A) [µg/mL] | MIC (Staph. aureus A-9537) [µg/mL] | MIC (E. coli A-15119) [µg/mL] | MIC (Str. pyogenes A-9604) [µg/mL] | MIC (Pr. morganii A-15153) [µg/mL] | MIC [5] [µg/mL] | MIC (Str. faecalis A-20688) [µg/mL] | MIC (K. pneumoniae A-15130) [µg/mL] | MIC (Str. pneumoniae A-9585) [µg/mL] | MIC [6] [µg/mL] | MIC (Ser. marcescens A-20019) [µg/mL] | MIC (Ent. cloacae A-9659) [µg/mL] | MIC (Pr. mirabilis A-9900) [µg/mL] | MIC (E. coli A-20341-1; [11]) [µg/mL] | further results
1 | CC(=O)OC[C@H]1C(=O)N2C(C(=O)O)=C(CN)S[C@H]12 (relative stereo) [cis 6-Acetoxymethyl-2-aminomethylpenem-3-carboxylic Acid] | unstable |  |  |  |  |  |  |  |  |  |  |  |  |  |  |  |  | 
2 | NCCC1=C(C(=O)O)N2C(=O)CC2S1 (centres unmarked) [Example 24, 2-Aminoethylpenem-3-carboxylic Acid] |  | 8 (≈ 37.3 µM) | > 125 | 125 (≈ 583 µM) | 4 (≈ 18.7 µM) | 32 (≈ 149 µM) | 2 (≈ 9.34 µM) | 125 (≈ 583 µM) | 16 | 63 (≈ 294 µM) | > 125 | 2 (≈ 9.34 µM) | 125 (≈ 583 µM) | 63 (≈ 294 µM) | 63 (≈ 294 µM) | 63 (≈ 294 µM) |  | MIC (Ent. cloacae A-9656; Enterobacter cloacae A9656): 125 µg/mL (≈ 583 µM); MIC ([3]; read-out: Minimum Inhibitory Concentration (M.I.C.), Staph. aureus A15097 (Meth-Res)): > 125 µg/mL; MIC (Proteus rettgeri A21203; Proteus rettgeri A21203): 125 µg/mL (≈ 583 µM); concentration at 10 min ([4]; 10 minutes after IM 40 mg/kg): 51400 ng/mL; concentration at 20 min ([4]; 20 minutes after IM 40 mg/kg): 37100 ng/mL; concentration at 0.5 h ([4]; 30 minutes after IM 40 mg/kg): 21800 ng/mL; concentration at 0.75 h ([4]; 45 minutes after IM 40 mg/kg): 9400 ng/mL; concentration at 1 h ([4]; 60 minutes after IM 40 mg/kg): 5000 ng/mL; concentration at 1.5 h ([4]; 90 minutes after IM 40 mg/kg): < 3100 ng/mL; concentration at 2 h ([4]; 120 minutes after IM 40 mg/kg): < 3100 ng/mL; MIC (E. coli A-20341-1; Escherichia coli, A203411; E. coli A20341-1; overnight 37° C.; read-out: Minimum Inhibitory Concentration (M.I.C.)): 125 µg/mL (≈ 583 µM); ED50 (S. aureus A9537; 1 × 10^6 organisms): 0.63 mg/kg; MIC [7]: > 125 µg/mL
3 | NC1CC1C1=C(C(=O)O)N2C(=O)CC2S1 (stereo not drawn) [Example 99, 2-(trans-2-Aminocyclopropyl)-penem-3-carboxylic Acid] | suspected to be very light sensitive | 4 (≈ 17.7 µM) |  | > 63 | 1 (≈ 4.42 µM) | 8 (≈ 35.4 µM) | 1 (≈ 4.42 µM) | 16 (≈ 70.7 µM) | 16 | 63 (≈ 278 µM) | 32 (≈ 141 µM) | 1 (≈ 4.42 µM) | > 63 | 16 (≈ 70.7 µM) | 16 (≈ 70.7 µM) | 8 (≈ 35.4 µM) | 63 (≈ 278 µM) | MIC (Ent. cloacae A-9656; Enterobacter cloacae, A9656, Enterobacter cloacae A9656): 16 µg/mL (≈ 70.7 µM); MIC (Ps. aeruginosa A-21213; Pseudomonas aeruginosa, A21213, Pseudomonas aeruginosa A21213): > 63 µg/mL; MIC ([3]; Staph. aureus A15097 (Meth-Res), read-out: Minimum Inhibitory Concentration (M.I.C.)): 32 µg/mL (≈ 141 µM); MIC (Proteus vulgaris A21559): 16 µg/mL (≈ 70.7 µM); MIC (Proteus rettgeri A21203; A21203, Proteus rettgeri A21203): 8 µg/mL (≈ 35.4 µM)
4 | CC1=C(C(=O)O)N2C(=O)C[C@H]2S1 [Preparation 2,3, 2-Methylpenem-3-carboxylic Acid] |  | 1 (≈ 5.4 µM) | > 125 |  |  |  |  |  |  | 32 (≈ 173 µM) |  |  | > 125 |  |  |  | 16 (≈ 86.4 µM) | ED50 (S. aureus A9606): > 50 mg/kg; ED50 (K. pneumoniae A15130): > 400 mg/kg; ED50 (S. pneumoniae A9585; 3 × 10^4 organisms): > 12.5 mg/kg; ED50 (S. pneumoniae A9585; 3.4 × 10^4 organisms): > 50 mg/kg; PD50 (S. aureus A9537; 1.1 × 10^6 organisms, listed as Prep. 2,3): 22 mg/kg/treatment; ED50 (S. aureus A9537; 1.1 × 10^6 organisms): 13 mg/kg; ED50 (S. aureus A9537; 7.8 × 10^5 organisms): 13 mg/kg; ED50 (S. pyogenes A9604; 1.2 × 10^3 organisms): > 50 mg/kg; ED50 (S. pyogenes A9604; 8 × 10^3 organisms): > 12.5 mg/kg; MIC [8]: 4 µg/mL (≈ 21.6 µM)
5 | O=C(O)[C@H]1/C(=C/CO)O[C@@H]2CC(=O)N21 [clavulanic acid] |  |  |  |  |  |  |  |  |  |  |  |  |  |  |  |  |  | enhancement of activity of penicillins and cephalosporins [9]: enhances the in vitro and in vivo activity of some penicillins and cephalosporins; antibacterial activity [10]: low order of antibacterial activity; β-lactamase inhibition (β-lactamases): inhibits the action of certain β-lactamases
